Target: BTK (Homo sapiens (Human), UniProt Q06187)
Experiment: In vitro BTK kinase assay: BTK-POLYGAT-LS ASSAY
Details: not given

BTK, sequence (Q06187 whole entry): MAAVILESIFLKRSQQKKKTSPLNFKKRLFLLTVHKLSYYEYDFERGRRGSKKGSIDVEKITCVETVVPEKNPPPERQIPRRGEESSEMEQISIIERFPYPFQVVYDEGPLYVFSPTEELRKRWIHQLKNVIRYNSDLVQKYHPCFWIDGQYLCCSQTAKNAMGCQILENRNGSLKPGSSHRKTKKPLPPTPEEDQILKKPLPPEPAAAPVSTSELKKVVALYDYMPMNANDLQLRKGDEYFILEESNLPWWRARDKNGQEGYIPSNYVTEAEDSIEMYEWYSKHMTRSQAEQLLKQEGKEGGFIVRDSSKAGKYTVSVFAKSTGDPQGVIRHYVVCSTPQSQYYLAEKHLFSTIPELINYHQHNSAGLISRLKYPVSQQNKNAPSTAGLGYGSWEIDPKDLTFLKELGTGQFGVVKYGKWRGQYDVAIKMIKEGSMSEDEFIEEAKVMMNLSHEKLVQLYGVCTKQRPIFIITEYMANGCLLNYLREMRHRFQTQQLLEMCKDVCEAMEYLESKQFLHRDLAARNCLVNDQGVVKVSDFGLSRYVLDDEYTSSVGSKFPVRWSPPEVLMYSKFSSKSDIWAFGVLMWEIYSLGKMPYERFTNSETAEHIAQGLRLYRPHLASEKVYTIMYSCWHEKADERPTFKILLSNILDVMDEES

Compared with O=C(NCC1CCCC1)Nc1cccc(C2CCCN(c3ncnc4[nH]ccc34)C2)c1 (stereo not drawn) [compound 166], O=C(NCC1CCCCCC1)Nc1cccc(C2CCCN(c3ncnc4[nH]ccc34)C2)c1 (stereo not drawn) [compound 217] is higher in IC50: 100 to 999 nM for the first, 1000 to 10000 nM for the second.

Compared with N#Cc1c(N)ncnc1N1CCCC(c2cccc(NC(=O)Nc3ccccc3)c2)C1 (stereo not drawn) [Cmpd 102, 1-(3-(1-(6-Amino-5-cyanopyrimidin-4-yl)piperidin-3-yl)phenyl)-3-phenylurea], Nc1ncnc(N2CCCC(c3cccc(NC(=O)Nc4ccccc4)c3)C2)c1Br (stereo not drawn) [Cmpd 101, 1-(3-(1-(6-Amino-5-bromopyrimidin-4-yl)piperidin-3-yl)phenyl)-3-phenylurea] is higher in IC50: 100 to 999 nM for the first, 1000 to 10000 nM for the second. The first is the more potent here.

Compared with O=C(Nc1cc(C2CCCN(c3ncnc4[nH]ccc34)C2)ccc1OC(F)(F)F)C1CCCCC1 (stereo not drawn) [Cmpd 87, N-(5-(1-(7H-pyrrolo[2,3-d]pyrimidin-4-yl)piperidin-3-yl)-2-(trifluoromethoxy)phenyl)cyclohexanecarboxamide], C[C@@H](NC(=O)Nc1cccc(C2CCCN(c3ncnc4[nH]ccc34)C2)c1)C1CCCCC1 (stereo partly drawn) [Cmpd 44, 1-(3-(1-(7H-pyrrolo[2,3-d]pyrimidin-4-yl)piperidin-3-yl)phenyl)-3-((R)-1-cyclohexylethyl)urea] is higher in IC50: 100 to 999 nM for the first, 1000 to 10000 nM for the second. The first is the more potent here.

First: CC(C)CN1CCN(c2ncnc3[nH]ccc23)CC1c1cccc(NC(=O)Nc2ccccc2)c1 (stereo not drawn) [compound 129, 1-(3-(1-isobutyl-4-(7H-pyrrolo[2,3-d]pyrimidin-4-yl)piperazin-2-yl)phenyl)-3-phenylurea]
Second: CC(C)c1ccccc1NC(=O)Nc1cccc(C2CN(c3ncnc4[nH]ccc34)CCN2CCO)c1 (stereo not drawn) [compound 133, 1-(3-(1-(2-hydroxyethyl)-4-(7H-pyrrolo[2,3-d]pyrimidin-4-yl)piperazin-2-yl)phenyl)-3-(2-isopropylphenyl)urea]
The IC50 of the first is higher: 1000 to 10000 nM for the first, 100 to 999 nM for the second. The second is the more potent here.

First: O=C(NCC1(O)CCCCC1)Nc1cccc(C2CCCN(c3ncnc4[nH]ccc34)C2)c1 (stereo not drawn) [compound 184]
Second: O=C(Nc1cccc(C2CCCN(c3ncnc4[nH]ccc34)C2)c1)Nc1ccccc1N1CCCCC1 (stereo not drawn) [compound 175]
The IC50 of the first is higher: 1000 to 10000 nM for the first, 100 to 999 nM for the second.

First: CCOC(=O)c1cccc(NC2CCCN([C@@H]3CCCN(c4ncnc(N)c4F)C3)C2=O)c1 (stereo partly drawn) [compound 296, Ethyl 3-((3′R)-1′-(6-amino-5-fluoropyrimidin-4-yl)-2-oxo-1,3′-bipiperidin-3-ylamino) benzoate]
Second: C[C@@H]1CCCN1c1ccccc1NC(=O)Nc1cccc(C2CCCN(c3ncnc4[nH]ccc34)C2)c1 (stereo partly drawn) [compound 159]
The IC50 of the first is higher: 1000 to 10000 nM for the first, 100 to 999 nM for the second.

First: CN(C)c1ccccc1NC(=O)Nc1cccc(C2CCCN(c3ncnc4[nH]ccc34)C2)c1 (stereo not drawn) [Cmpd 34, 1-(3-(1-(7H-pyrrolo[2,3-d]pyrimidin-4-yl)piperidin-3-yl)phenyl)-3-(2-(dimethylamino)phenyl)urea]
Second: O=C(Nc1cccc(C2CCCN(c3ncnc4[nH]ccc34)C2)c1)Nc1ccccc1C(F)(F)F (stereo not drawn) [compound 173]
The IC50 of the first is higher: 1000 to 10000 nM for the first, 100 to 999 nM for the second.

CC(=O)NCc1ccccc1NC(=O)Nc1cccc(C2CCCN(c3ncnc4[nH]ccc34)C2)c1 (stereo not drawn) [Cmpd 62, N-(2-(3-(3-(1-(7H-pyrrolo[2,3-d]pyrimidin-4-yl)piperidin-3-yl)phenyl)ureido)benzyl)acetamide] and O=C(Nc1cccc(C2CCCN(c3ncnc4[nH]ccc34)C2)c1)Nc1ccccn1 (stereo not drawn) [Cmpd 29, 1-(3-(1-(7H-pyrrolo[2,3-d]pyrimidin-4-yl)piperidin-3-yl)phenyl)-3-(pyridin-2-yl)urea] fall in the same range of IC50: 1000 to 10000 nM for the first, 1000 to 10000 nM for the second.

Nc1ncnc(N2CCCC(c3cccc(NC(=O)Nc4ccccc4)c3)C2)c1CCC(=O)O (stereo not drawn) [compound 206] and O=C(Nc1ccccc1)Nc1cccc(C2CCCN(c3ncnc4[nH]nc(Br)c34)C2)c1 (stereo not drawn) [Cmpd 100, 1-(3-(1-(3-Bromo-1H-pyrazolo[3,4-d]pyrimidin-4-yl)piperidin-3-yl)phenyl)-3-phenylurea] fall in the same range of IC50: 1000 to 10000 nM for the first, 1000 to 10000 nM for the second.

O=C(NCc1cccc(C2CCCN(c3ncnc4[nH]ccc34)C2)c1)Nc1ccccc1 (stereo not drawn) [compound 216] and O=C(CCc1ccccc1)Nc1cccc(C2CCCN(c3ncnc4[nH]ccc34)C2)c1 (stereo not drawn) [Cmpd 23, N-(3-(1-(7H-pyrrolo[2,3-d]pyrimidin-4-yl)piperidin-3-yl)phenyl)-3-phenylpropanamide] fall in the same range of IC50: 1000 to 10000 nM for the first, 1000 to 10000 nM for the second.

Same assay, conditions: read-out: IC50 (10 uM ATP); 10 uM ATP; in vitro Btk kinase assay, Example 41

CN(C(=O)Nc1ccccc1)c1cccc(C2CCCN(c3ncnc4[nH]ccc34)C2)c1 (stereo not drawn) [compound 136, 1-(3-(1-(7H-Pyrrolo[2,3-d]pyrimidin-4-yl)piperidin-3-yl)phenyl)-1-methyl-3-phenylurea] and N[C@@H](C(=O)Nc1cccc(C2CCCN(c3ncnc4[nH]ccc34)C2)c1)c1ccccc1 (stereo partly drawn) [Cmpd 21, (2R)—N-(3-(1-(7H-pyrrolo[2,3-d]pyrimidin-4-yl)piperidin-3-yl)phenyl)-2-amino-2-phenylacetamide] cannot be ordered by IC50: > 10000 nM for the first, > 10000 nM for the second.

Compared with C[C@H](NC(=O)Nc1cccc(C2CCCN(c3ncnc4[nH]ccc34)C2)c1)c1ccccc1 (stereo partly drawn) [compound 248], CC(C)c1ccccc1NC(=O)Nc1cccc(C2CCCN(c3ncnc4[nH]ccc34)C2)c1 (stereo not drawn) [compound 151] is lower in IC50: > 10000 nM for the first, < 100 nM for the second.

Going from Nc1ncnc(N2CCC[C@@H](N3CCCC(Nc4ccccc4S(=O)(=O)c4ccccc4)C3=O)C2)c1F (stereo in doubt) [compound 319, 1′-(6-Amino-5-fluoropyrimidin-4-yl)-3-(2-(phenylsulfonyl)phenylamino)-1,3′-bipiperidin-2-one] to Nc1ncnc(N2CCC[C@@H](N3CCCC(Nc4ccc(C(=O)O)cc4)C3=O)C2)c1F (stereo partly drawn) [compound 298, 4-((3′R)-1′-(6-Amino-5-fluoropyrimidin-4-yl)-2-oxo-1,3′-bipiperidin-3-ylamino)benzoic acid], the IC50 rises from < 100 nM to > 10000 nM.

O=C(Nc1cccc(C2CCCN(c3ncnc4[nH]ccc34)C2)c1)c1cccc(O)c1 (stereo not drawn) [compound 15, N-(3-(1-(7H-pyrrolo[2,3-d]pyrimidin-4-yl)piperidin-3-yl)phenyl)-3-hydroxybenzamide] and Cc1cccc(Cl)c1NC(=O)Nc1cccc(C2CCCN(c3ncnc4[nH]ccc34)C2)c1 (stereo not drawn) [compound 238] cannot be ordered by IC50: > 10000 nM for the first, > 10000 nM for the second.

CO[C@H]1CCN(c2ccccc2NC(=O)Nc2cccc(C3CCCN(c4ncnc5[nH]ccc45)C3)c2)C1 (stereo partly drawn) [compound 157] and O=C(Nc1cccc(C2CCCN(c3ncnc4[nH]ccc34)C2)c1)Nc1ccccc1N1C[C@@H](O)[C@@H](O)C1 (stereo partly drawn) [compound 148] cannot be ordered by IC50: < 100 nM for the first, < 100 nM for the second.

Nc1ncnc(N2CCC[C@@H](N3CCCC(Nc4cc(F)cc(Cl)c4)C3=O)C2)c1F (stereo in doubt) [compound 313, (3R,3′R)-1′-(6-Amino-5-fluoropyrimidin-4-yl)-3-(3-chloro-5-fluorophenylamino)-1,3′-bipiperidin-2-one] and Nc1ncnc(N2CC(N3CCCC(Nc4cc(F)cc(Cl)c4)C3=O)CC(F)(F)C2)c1F (stereo not drawn) [compound 359] cannot be ordered by IC50: < 100 nM for the first, < 100 nM for the second.

Compared with CC(C)(C)c1ccccc1NC(=O)Nc1cccc([C@H]2CCCN(c3ncnc4[nH]ccc34)C2)c1 [compound 156], N#Cc1ccccc1NC(=O)Nc1cccc(C2CCCN(c3ncnc4[nH]ccc34)C2)c1 (stereo not drawn) [Cmpd 65, 1-(3-(1-(7H-pyrrolo[2,3-d]pyrimidin-4-yl)piperidin-3-yl)phenyl)-3-(2-cyanophenyl)urea] is higher in IC50: < 100 nM for the first, > 10000 nM for the second. The first is the more potent here.

Compared with Nc1ncnc(N2CCC[C@@H](N3CCCC(NCC4CCCCC4)C3=O)C2)c1F (stereo partly drawn) [compound 293, (3′R)-1′-(6-Amino-5-fluoropyrimidin-4-yl)-3-(cyclohexylmethylamino)-1,3′-bipiperidin-2-one], Nc1ncnc(N2CCC[C@@H](N3CC(O)C(O)C[C@@H](Nc4cc(F)cc(Cl)c4)C3=O)C2)c1F (stereo partly drawn) [compound 348, (3R)-1-((R)-1-(6-amino-5-fluoropyrimidin-4-yl)piperidin-3-yl)-3-(3-chloro-5-fluorophenylamino)-5,6-dihydroxyazepan-2-one] is lower in IC50: > 10000 nM for the first, < 100 nM for the second.

Nc1ncnc(N2CC[C@H](C(F)(F)F)[C@@H](N3CC[C@@H](Nc4cc(Cl)cc(Cl)c4)C3=O)C2)c1F [compound 353] and Nc1ncnc(N2CC[C@H](C(F)(F)F)[C@@H](N3CCC[C@@H](Nc4cc(Cl)cc(Cl)c4)C3=O)C2)c1F [compound 337, trans (3R)-1′-(6-Amino-5-fluoropyrimidin-4-yl)-3-(3,5-dichlorophenylamino)-4′-(trifluoromethyl)-1,3′-bipiperidin-2-one] cannot be ordered by IC50: < 100 nM for the first, < 100 nM for the second.

O=C(Nc1ccccc1)N[C@H]1CCCN(C2CCCN(c3ncnc4[nH]ccc34)C2)C1 (stereo partly drawn) [compound 237] and CN1CCCC(CNC(=O)Nc2cccc(C3CCCN(c4ncnc5[nH]ccc45)C3)c2)C1 (stereo not drawn) [compound 225] cannot be ordered by IC50: > 10000 nM for the first, > 10000 nM for the second.

Cc1cc(=O)nc(Nc2cccc(C3CCCN(c4ncnc5[nH]ccc45)C3)c2)[nH]1 (stereo not drawn) [compound 122, 2-(3-(1-(7H-pyrrolo[2,3-d]pyrimidin-4-yl)piperidin-3-yl)phenylamino)-6-methylpyrimidin-4(1H)-one] and CNc1c(Nc2cccc(C3CCCN(c4ncnc5[nH]ccc45)C3)c2)c(=O)c1=O (stereo not drawn) [Cmpd 72, 3-(3-(1-(7H-pyrrolo[2,3-d]pyrimidin-4-yl)piperidin-3-yl)phenylamino)-4-(methylamino)cyclobut-3-ene-1,2-dione] cannot be ordered by IC50: > 10000 nM for the first, > 10000 nM for the second.

O=C(Nc1ccc(C2CCCC2)cc1)Nc1cccc(C2CCCN(c3ncnc4[nH]ccc34)C2)c1 (stereo not drawn) [compound 255] and O=C(NCC1CCOCC1)Nc1cccc(C2CCCN(c3ncnc4[nH]ccc34)C2)c1 (stereo not drawn) [compound 223] cannot be ordered by IC50: > 10000 nM for the first, > 10000 nM for the second.

CN1CCC(O)(CNC(=O)Nc2cccc(C3CCCN(c4ncnc5[nH]ccc45)C3)c2)CC1 (stereo not drawn) [compound 235] and Cn1ccc2c(N3CCCC(c4cccc(NC(=O)Nc5ccccc5)c4)C3)ncnc21 (stereo not drawn) [Cmpd 93, 1-(3-(1-(7-methyl-7H-pyrrolo[2,3-d]pyrimidin-4-yl)piperidin-3-yl)phenyl)-3-phenylurea] cannot be ordered by IC50: > 10000 nM for the first, > 10000 nM for the second.

Compared with FC(F)(F)c1cccnc1Nc1cccc(C2CCCN(c3ncnc4[nH]ccc34)C2)c1 (stereo not drawn) [compound 143, N-(3-(1-(7H-pyrrolo[2,3-d]pyrimidin-4-yl)piperidin-3-yl)phenyl)-3-(trifluoromethyl)pyridin-2-amine], O=C1[C@@H](Nc2cc(Cl)cc(Cl)c2)CCN1[C@@H]1CCCN(c2ncnc3[nH]ccc23)C1 [compound 357] is lower in IC50: > 10000 nM for the first, < 100 nM for the second.

Reference: patent publication US9790229B2, “Bruton's tyrosine kinase inhibitors” (priority 2009, dated 2017)
